Data published in patent US9547000B2, “Chromogenic absorbent material for animal litter and related chromogenic solution” (7905122 CANADA INC., priority 2012, dated 2017).
In brackets after ≈: the same amount, converted by molar mass.

Test: Solubility of TMB in different solvents
Assay type: physicochemical
Excerpt: The following Table 1 presents results regarding the solubility of TMB in different solvents.

## Cc1cc(-c2cc(C)c(N)c(C)c2)cc(C)c1N [TMB, 3,3′,5,5′-tetramethylbenzidine]
Organic solvent or mixture, solvent Dimethylsulfonamide
  solubility: 1.6 mM (≈ 385 µg/mL)
Organic solvent or mixture, solvent Ethyl acetate
  solubility: 10 mM (≈ 2400 µg/mL)
Organic solvent or mixture, solvent Methanol
  solubility: 5.2 mM (≈ 1250 µg/mL)
water, solvent Water
  solubility: 0.1 mM (≈ 24 µg/mL)
